Laboratory results as given in patent publication US9315475B2 (MERCK SHARP & DOHME CORP., priority 2011, dated 2016).
Where a name gives a salt, the structure may show the parent alone.

How the values were obtained:
wildtype HIV-1 protease = biological target: T1, wildtype HIV-1 protease (Human immunodeficiency virus type 1 group M subtype B, UniProt P04585); test: Assay for inhibition of microbial expressed HIV protease (Pepcleav); format: biochemical; conditions: wild type HIV-1 protease expressed in E. coli, peptide substrate, pH 5.5; mean of at least two independent experiments; read-out: Pepcleav
T1 construct: the wildtype HIV-1 protease (which was expressed in Escherichia coli); made in house; host or cells: Escherichia coli
In short: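 E. coli-expressed wild-type HIV-1 protease (20 pM) preincubated 30 min at room temperature with inhibitor in pH 5.5 sodium acetate/NaCl/BSA buffer, then 400 μM Val-Ser-Gln-Asn-(βnaphthyl)Ala-Pro-Ile-Val added for 1 h at 30 °C. Quenched with formic acid; product quantified by LC-MS/MS peak area, indinavir internal standard.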

HIV-1 (H9IIIB strain) = test: Antiviral acute infection assay in cell culture (Spread); format: cell-based; conditions: Human immunodeficiency virus 1, T-lymphoid, HIV-1 H9IIIB infection of MT-4 human T-lymphoid cells in 10% FBS; mean of at least two independent experiments
Source text: Antiviral Assays in Cell Culture (“Spread”)
Acute Infection Assay (“Spread”) data were generated using HIV-1 (H9IIIB strain) infection of MT-4 human T-lymphoid cells in 10% FBS, and according to the methods disclosed by J. P. Vacca et al, “L-735,524: An orally bioavailable human immunodeficiency virus type 1 protease inhibitor,” Proc. Natl. Acad. Sci. USA, Vol. 91, pp. 4096-4100 (April 1994).

| Structure (SMILES) | EC50 (HIV-1 (H9IIIB strain)) | IC50 (wildtype HIV-1 protease) |
| --- | --- | --- |
| O=C(C[C@@H](c1ccc(F)cc1)c1cc(F)cc(F)c1)Nc1cncc(F)c1CC[C@@H]1CNC(COC(=O)NCC(F)(F)F)CO1 (stereo in doubt) [Example 89, (3S)-3-(4-Fluorophenyl)-3-(3,5-difluorophenyl)-N-(5-fluoro-4-(2-((2R,5R)-5-(2,2,2-trifluoroethylaminocarbonyloxymethyl)morpholine-2-yl)ethyl)pyridin-3-yl)propanamide] | 13 nM | 1.4 nM |
| N[C@H](C(=O)Nc1cncc(F)c1CC[C@@H]1CNC(COC(=O)NCC(F)(F)F)CO1)[C@@H](c1ccc(F)cc1)c1cc(F)cc(F)c1 (stereo in doubt) [Example 90, (2S,3S)-2-Amino-3-(4-fluorophenyl)-3-(3,5-difluorophenyl)-N-(5-fluoro-4-(2-((2R,5R)-5-(2,2,2-trifluoroethylaminocarbonyloxymethyl)morpholine-2-yl)ethyl)pyridin-3-yl)propanamide] | 49 nM | 2.4 nM |
| COC(=O)N[C@H](C(=O)Nc1cncc(F)c1CC[C@@H]1CNC(COC(=O)NCC(F)(F)F)CO1)[C@@H](c1ccc(F)cc1)c1cc(F)cc(F)c1 (stereo in doubt) [Example 91, (2S,3S)-2-(Methoxycarbonylamino)-3-(4-fluorophenyl)-3-(3,5-difluorophenyl)-N-(5-fluoro-4-(2-((2R,5R)-5-(2,2,2-trifluoroethylaminocarbonyloxymethyl)morpholine-2-yl)ethyl)pyridin-3-yl)propanamide] | 16 nM | 3 nM |
| N[C@H](C(=O)Nc1cncc(F)c1CC[C@@H]1CN[C@H](COC(=O)NCC(F)(F)F)CO1)[C@H](c1ccc(F)cc1)c1cccc(F)c1 (stereo in doubt) [Example 92] | 43 nM | 4.4 nM |
| N[C@H](C(=O)Nc1cncc(F)c1CC[C@@H]1CNC(COC(=O)NCC(F)(F)F)CO1)[C@@H](c1ccc(F)cc1)c1cccc(Cl)c1 (stereo in doubt) [Example 93, (2S,3S)-2-Amino-3-(3-chlorophenyl)-3-(4-fluorophenyl)-N-(5-fluoro-4-(2-((2R,5R)-5-(2,2,2-trifluoroethylaminocarbonyloxymethyl)morpholine-2-yl)ethyl)pyridin-3-yl)propanamide] | 52 nM | 1.7 nM |
| N[C@H](C(=O)Nc1cncc(F)c1CC[C@@H]1CN[C@H](COC(=O)NCC(F)(F)F)CO1)C(c1ccc(F)cc1)c1ccc(F)cc1 [Example 79, 4-Fluoro-β-(4-fluorophenyl)-N-(5-fluoro-4-{2-[(2R,5S)-5-({[(2,2,2-trifluoroethyl)carbamoyl]oxy}methyl)morpholin-2-yl]ethyl}pyridin-3-yl)-L-phenylalaninamide trihydrochloride] | 37 nM | 3.6 nM |
| N[C@H](C(=O)Nc1cccc(F)c1CC[C@@H]1CN[C@H](COC(=O)NCC(F)(F)F)CO1)[C@@H](c1ccc(F)cc1)c1ccc(OC(F)(F)F)cc1 [Example 219, (βR)-β-(4-fluorophenyl)-N-(3-fluoro-2-{2-[(2R,5S)-5-({[(2,2,2-trifluoroethyl)carbamoyl]oxy}methyl)morpholin-2-yl]ethyl}phenyl)-O-(trifluoromethyl)-L-tyrosinamide] | 140 nM | – |
| N[C@H](C(=O)Nc1cccc(F)c1CC[C@@H]1CN[C@H](COC(=O)NCCOc2ccccc2)CO1)C(c1ccc(F)cc1)c1ccc(F)cc1 [Example 222, 4-fluoro-N-(3-fluoro-2-{2-[(2R,5S)-5-({[(2-phenoxyethyl)carbamoyl]oxy}methyl)morpholin-2-yl]ethyl}phenyl)-β-(4-fluorophenyl)-L-phenylalaninamide] | 53 nM | – |
| N[C@H](C(=O)Nc1cncc(F)c1CC[C@@H]1CN[C@H](COC(=O)NCC(F)(F)F)CO1)[C@H](c1ccc(F)cc1)c1ccc(-c2cccnc2)cc1 [Example 224, (βS)-β-(4-fluorophenyl)-N-(5-fluoro-4-{2-[(2R,5S)-5-({[(2,2,2-trifluoro-ethyl)carbamoyl]oxy}methyl)morpholin-2-yl]ethyl}pyridin-3-yl)-4-pyridin-3-yl-L-phenylalaninamide] | 260 nM | – |

The remaining compounds from weak to strong by EC50 (HIV-1 (H9IIIB strain)), led by results:

| EC50 (HIV-1 (H9IIIB strain)) | Structure (SMILES) | IC50 (wildtype HIV-1 protease) |
| --- | --- | --- |
| 1400 nM | N[C@H](C(=O)Nc1cccc(F)c1CC[C@@H]1CN[C@H](COC(=O)NC2CCOCC2)CO1)C(c1ccc(F)cc1)c1ccc(F)cc1 [Example 223, 4-fluoro-β-(4-fluorophenyl)-N-(3-fluoro-2-{2-[(2R,5S)-5-{[(tetrahydro-2H-pyran-4-ylcarbamoyl)oxy]methyl}morpholin-2-yl]ethyl}phenyl)-L-phenylalaninamide] | – |
| 690 nM | O=C(C[C@@H](c1ccc(F)cc1)c1ccsc1)Nc1cccc(F)c1CC[C@@H]1CN[C@H](COC(=O)NCC(F)(F)F)CO1 [Example 183, {(3S,6R)-6-[2-(2-fluoro-6-{[(3S)-3-(4-fluorophenyl)-3-thiophen-3-ylpropanoyl]amino}phenyl)ethyl]morpholin-3-yl}methyl (2,2,2-trifluoroethyl)carbamate] | – |
| 210 nM | NC(=O)[C@H]1CCCCC1NC(=O)OC[C@@H]1CO[C@H](CCc2c(F)cncc2NC(=O)CC(c2ccc(F)cc2)c2ccc(F)cc2)CN1 (stereo partly drawn) [Example 187, {(3S,6R)-6-[2-(3-{[3,3-bis(4-fluoro-phenyl)propanoyl]amino}-5-fluoropyridin-4-yl)ethyl]morpholin-3-yl}methyl [(2S)-2-carbamoylcyclohexyl] carbamate] | – |
| 68 nM | O=C(CC(c1ccc(F)cc1)c1ccc(F)cc1)Nc1cncc(F)c1CC[C@@H]1CN[C@H](COC(=O)NC2c3ccccc3C[C@H]2O)CO1 (stereo partly drawn) [Example 185, {(3S,6R)-6-[2-(3-{[3,3-bis(4-fluoro-phenyl)propanoyl]amino}-5-fluoropyridin-4-yl)ethyl]morpholin-3-yl}methyl [(2R)-2-hydroxy-2,3-dihydro-1H-inden-1-yl]carbamate] | – |
| 66 nM | CC(C)C(NC(=O)OC[C@@H]1CO[C@H](CCc2c(F)cncc2NC(=O)CC(c2ccc(F)cc2)c2ccc(F)cc2)CN1)C(C)C [Example 186, {(3S,6R)-6-[2-(3-{[3,3-bis(4-fluoro-phenyl)propanoyl]amino}-5-fluoropyridin-4-yl)ethyl]morpholin-3-yl}methyl [2-methyl-1-(1-methylethyl)propyl] carbamate] | – |
| 50 nM | COCCOc1ccc([C@@H](CC(=O)Nc2cncc(F)c2CC[C@@H]2CN[C@H](COC(=O)NCC(F)(F)F)CO2)c2ccc(F)cc2)cc1 [Example 181, [(3S,6R)-6-{2-[3-fluoro-5-({(3R)-3-(4-fluorophenyl)-3-[4-(2-methoxy-ethoxy)phenyl]propanoyl}amino)pyridin-4-yl]ethyl}morpholin-3-yl]methyl (2,2,2-trifluoroethyl)carbamate] | – |
| 50 nM | O=C(CC(c1ccc(F)cc1)c1ccc(F)cc1)Nc1cncc(F)c1CC[C@@H]1CN[C@H](COC(=O)NCc2ccno2)CO1 [Example 188, {(3S,6R)-6-[2-(3-{[3,3-bis(4-fluoro-phenyl)propanoyl]amino}-5-fluoropyridin-4-yl)ethyl]morpholin-3-yl}methyl (isoxazol-5-ylmethyl)carbamate] | – |
| 33 nM | COC(=O)N[C@H](C(=O)Nc1cccc(F)c1CC[C@@H]1CN[C@H](COC(=O)NCC(F)(F)F)CO1)[C@@H](c1ccc(F)cc1)c1ccc(OC(F)(F)F)cc1 [Example 304, (βR)-β-(4-fluorophenyl)-N-(3-fluoro-2-{2-[(2R,5S)-5-({[(2,2,2-trifluoroethyl)carbamoyl]oxy}methyl)morpholin-2-yl]ethyl}phenyl)-Nα-(methoxy-carbonyl)-O-(trifluoromethyl)-L-tyrosinamide] | – |
| 25 nM | COC(=O)N[C@H](C(=O)Nc1cncc(F)c1CC[C@@H]1CN[C@H](COC(=O)NCC(F)(F)F)CO1)[C@@H](c1ccc(F)cc1)c1cccc(Cl)c1 [Example 301, (βS)-3-chloro-β-(4-fluorophenyl)-N-(5-fluoro-4-{2-[(2R, 5S)-5-({[(2,2,2-trifluoroethyl)carbamoyl]oxy}methyl)morpholin-2-yl]ethyl}pyridin-3-yl)-Nα-(methoxycarbonyl)-L-phenylalaninamide] | – |
| 17 nM | O=C(C[C@H](c1ccc(F)cc1)c1ccc(Cl)c(F)c1)Nc1cncc(F)c1CC[C@@H]1CN[C@H](COC(=O)NCC(F)(F)F)CO1 [Example 182, {(3S,6R)-6-[2-(3-{[(3R)-3-(4-chloro-3-fluorophenyl)-3-(4-fluoro-phenyl)propanoyl]amino}-5-fluoropyridin-4-yl)ethyl]morpholin-3-yl}methyl (2,2,2-trifluoroethyl)carbamate] | – |
| 15 nM | O=C(C[C@@H](c1ccc(F)cc1)c1cncc(C(F)(F)F)c1)Nc1cncc(F)c1CC[C@@H]1CN[C@H](COC(=O)NCC(F)(F)F)CO1 [Example 184, [(3S,6R)-6-{2-[3-fluoro-5-({(3S)-3-(4-fluorophenyl)-3-[5-(trifluoromethyl)pyridin-3-yl]propanoyl}amino)pyridin-4-yl]ethyl}morpholin-3-yl]methyl (2,2,2-trifluoroethyl)carbamate] | – |
| 15 nM | COC(=O)N[C@H](C(=O)Nc1cncc(F)c1CC[C@@H]1CN[C@H](COC(=O)NCC(F)(F)F)CO1)[C@@H](c1ccc(F)cc1)c1cccc(F)c1F [Example 302, (βS)-2,3-difluoro-β-(4-fluorophenyl)-N-(5-fluoro-4-{2-[(2R,5S)-5-({[(2,2,2-trifluoroethyl)carbamoyl]oxy}methyl)morpholin-2-yl]ethyl}pyridin-3-yl)-Nα-(methoxy-carbonyl)-L-phenylalaninamide] | – |
